Measured values taken from ChEMBL document CHEMBL1201862, “PubChem BioAssay data set” (2004).
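1) Cells in 96-well plates. 2) Compound, 48 h, 5 concentrations. 3) Linear interpolation between surrounding doses. 4) Unreached endpoint = highest concentration. GI50 is the concentration that inhibits growth by half.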 Activity calls are given as the source filed them. Rule as the data show it: active = GI50 up to about 1.1 µM and inactive = higher.

Assays:
Assay in all cases: growth of human tumour cells (NCI), 48 h
[1] = test system: HCT-116
[2] = test system: NCI-H522
[3] = test system: RPMI-8226
[4] = test system: U-251
[5] = test system: DLD-1
[6] = test system: RXF 393
[7] = test system: HL-60
[8] = test system: RXF 631
[9] = test system: UO-31
[10] = test system: LOX IMVI
[11] = test system: SNB-19
[12] = test system: A498
[13] = test system: NCI/ADR-RES
[14] = test system: DMS-114
[15] = test system: SW-620
[16] = test system: OVCAR-5
[17] = test system: SF-268
[18] = test system: HOP-92
[19] = test system: COLO 205
[20] = test system: MCF7
[21] = test system: SF-539
[22] = test system: NCI-H226
[23] = test system: HT-29
[24] = test system: LXFL 529
[25] = test system: KM12
[26] = test system: CAKI-1
[27] = test system: 786-0
[28] = test system: M19-MEL
[29] = test system: KM-20L2
[30] = test system: OVCAR-4
[31] = test system: UACC-257
[32] = test system: OVCAR-8
[33] = test system: SK-OV-3
[34] = test system: OVCAR-3
[35] = test system: SR
[36] = test system: NCI-H23
[37] = test system: MOLT-4
[38] = test system: HCC 2998
[39] = test system: M14
[40] = test system: Malme-3M
[41] = test system: HCT-15
[42] = test system: HOP-18
[43] = test system: SNB-78
[44] = test system: SF-295
[45] = test system: XF498
[46] = test system: SK-MEL-5
[47] = test system: A549
[48] = test system: SN12C
[49] = test system: K562
[50] = test system: SK-MEL-2
[51] = test system: DMS-273
[52] = test system: NCI-H460
[53] = test system: UACC-62
[54] = test system: EKVX
[55] = test system: SK-MEL-28
[56] = test system: SNB-75
[57] = test system: IGROV-1
[58] = test system: HOP-62
[59] = test system: CCRF-CEM

Question: Which GI50 [1] does the source give for `CCC[S+]([O-])c1nc(COC(=O)NC)c(COC(=O)NC)n1C` (centres undefined) here?
Answer: > 100 µM (inactive)

Question: What about the GI50 [2] of the same molecule?
Answer: > 100 µM (inactive)

Question: And the GI50 [3]?
Answer: > 100 µM (inactive)

Question: What about the GI50 [4] of the same molecule?
Answer: > 100 µM (inactive)

Question: And the GI50 [5]?
Answer: > 100 µM (inactive)

Question: What about the GI50 [6] of the same molecule?
Answer: > 100 µM (inactive)

Question: And the GI50 [7]?
Answer: > 100 µM (inactive)

Question: What about the GI50 [8] of the same molecule?
Answer: > 100 µM (inactive)

Question: And the GI50 [9]?
Answer: > 100 µM (inactive)

Question: What about the GI50 [10] of the same molecule?
Answer: > 100 µM (inactive)

Question: And the GI50 [11]?
Answer: > 100 µM (inactive)

Question: And the GI50 [12]?
Answer: > 100 µM (inactive)

Question: And the GI50 [13]?
Answer: > 100 µM (inactive)

Question: What about the GI50 [14] of the same molecule?
Answer: > 100 µM (inactive)

Question: What about the GI50 [15] of the same molecule?
Answer: > 100 µM (inactive)

Question: And the GI50 [16]?
Answer: > 100 µM (inactive)

Question: And the GI50 [17]?
Answer: > 100 µM (inactive)

Question: What about the GI50 [18] of the same molecule?
Answer: > 100 µM (inactive)

Question: And the GI50 [19]?
Answer: > 100 µM (inactive)

Question: What about the GI50 [20] of the same molecule?
Answer: > 100 µM (inactive)

Question: And the GI50 [21]?
Answer: > 100 µM (inactive)

Question: What about the GI50 [22] of the same molecule?
Answer: > 100 µM (inactive)

Question: What about the GI50 [23] of the same molecule?
Answer: > 100 µM (inactive)

Question: What about the GI50 [24] of the same molecule?
Answer: > 100 µM (inactive)

Question: And the GI50 [25]?
Answer: > 100 µM (inactive)

Question: And the GI50 [26]?
Answer: > 100 µM (inactive)

Question: What about the GI50 [27] of the same molecule?
Answer: > 100 µM (inactive)

Question: What about the GI50 [28] of the same molecule?
Answer: > 100 µM (inactive)

Question: And the GI50 [29]?
Answer: > 100 µM (inactive)

Question: What about the GI50 [30] of the same molecule?
Answer: > 100 µM (inactive)

Question: What about the GI50 [31] of the same molecule?
Answer: > 100 µM (inactive)

Question: And the GI50 [32]?
Answer: > 100 µM (inactive)

Question: And the GI50 [33]?
Answer: > 100 µM (inactive)

Question: And the GI50 [34]?
Answer: > 100 µM (inactive)

Question: What about the GI50 [35] of the same molecule?
Answer: > 100 µM (inactive)

Question: And the GI50 [36]?
Answer: > 100 µM (inactive)

Question: And the GI50 [37]?
Answer: > 100 µM (inactive)

Question: And the GI50 [38]?
Answer: > 100 µM (inactive)

Question: What about the GI50 [39] of the same molecule?
Answer: > 100 µM (inactive)

Question: What about the GI50 [40] of the same molecule?
Answer: > 100 µM (inactive)

Question: What about the GI50 [41] of the same molecule?
Answer: > 100 µM

Question: What about the GI50 [42] of the same molecule?
Answer: > 100 µM (inactive)

Question: And the GI50 [43]?
Answer: > 100 µM (inactive)

Question: What about the GI50 [44] of the same molecule?
Answer: > 100 µM (inactive)

Question: What about the GI50 [45] of the same molecule?
Answer: > 100 µM (inactive)

Question: And the GI50 [46]?
Answer: > 100 µM (inactive)

Question: What about the GI50 [47] of the same molecule?
Answer: > 100 µM (inactive)

Question: And the GI50 [48]?
Answer: > 100 µM (inactive)

Question: What about the GI50 [49] of the same molecule?
Answer: > 100 µM (inactive)

Question: What about the GI50 [50] of the same molecule?
Answer: > 100 µM (inactive)

Question: And the GI50 [51]?
Answer: > 100 µM (inactive)

Question: What about the GI50 [52] of the same molecule?
Answer: > 100 µM (inactive)

Question: What about the GI50 [53] of the same molecule?
Answer: > 100 µM (inactive)

Question: What about the GI50 [54] of the same molecule?
Answer: > 100 µM (inactive)

Question: And the GI50 [55]?
Answer: > 100 µM (inactive)

Question: What about the GI50 [56] of the same molecule?
Answer: > 100 µM (inactive)

Question: And the GI50 [57]?
Answer: > 100 µM (inactive)

Question: What about the GI50 [58] of the same molecule?
Answer: > 100 µM (inactive)

Question: What about the GI50 [59] of the same molecule?
Answer: > 100 µM (inactive)
